Test results from publication PMC7132332 (Biochemistry, 2020).

Target: T1, WecA (Escherichia coli, UniProt P0AC78)
T1 sequence (P0AC78 1-367): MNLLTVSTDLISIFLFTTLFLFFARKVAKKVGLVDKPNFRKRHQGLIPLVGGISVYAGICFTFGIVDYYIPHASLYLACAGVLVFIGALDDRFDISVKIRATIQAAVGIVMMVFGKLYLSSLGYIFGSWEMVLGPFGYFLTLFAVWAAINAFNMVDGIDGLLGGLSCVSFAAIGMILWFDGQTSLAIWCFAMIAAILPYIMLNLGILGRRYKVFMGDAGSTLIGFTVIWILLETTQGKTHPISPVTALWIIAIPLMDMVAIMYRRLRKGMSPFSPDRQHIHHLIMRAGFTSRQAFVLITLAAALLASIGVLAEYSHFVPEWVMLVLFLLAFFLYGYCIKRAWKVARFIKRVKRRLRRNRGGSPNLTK
Test: HPLC transferase assay with cell envelope fraction
Format: biochemical
Conditions: 2CN- or NBD-B(4Z)P; overexpressed recombinant WecA; bicine pH 8.5, MgCl2, cholate, 37 °C

SMILES: CC(=O)N[C@H]1[C@@H](OP(=O)(O)OP(=O)(O)OC[C@H]2O[C@@H](n3ccc(=O)[nH]c3=O)[C@H](O)[C@@H]2O)O[C@H](CO)[C@@H](O)[C@@H]1O [UDP-GlcNAc]
- HPLC transferase assay with cell envelope fraction: able to convert fl-BPs with far lower concentrations of UDP-GlcNAc
